Measured values taken from patent publication US9289496B2, “Lipid dipeptide and gel” (Nissan Chemical Industries, Ltd., priority 2008, dated 2016).
Residues, ends and D or L forms follow the SMILES beside them.

How the values were obtained:
Assay type in all cases: physicochemical
[1] = Evaluation of gelation of free N-palmitoyl-Gly-His in water and at various pHs; design: key: a sample that formed a gel is shown as “O”; a sample that formed a sol is shown as “X”; a sample without evaluation is shown as “-”
Experimental: Free N-palmitoyl-Gly-His prepared in Example 4 was placed into a screw tube (Maruemu No. 1, manufactured by Maruemu Corp.). Each of the various solutions shown in Table 4 was added into the screw tube so as to have a free N-palmitoyl-Gly-His (also called Pal-GH (free)) concentration of 0.1%, 0.2%, 0.5%, 1%, or 2% (w/v). The mixture was heated at 100° C. with a constant temperature heat block (manufactured by Nippon Genetics Co., Ltd.), and then allowed to stand at room temperature.
In Table, a sample that formed a gel is shown as “O”, a sample that formed a sol is shown as “X”, and a sample without evaluation is shown as “-”.

[2] = Evaluation of gelation of free N-palmitoyl-Gly-His in glycerin solution
Experimental: (§1) Free N-palmitoyl-Gly-His prepared in Example 4 was placed into a screw tube (Maruemu No. 1, manufactured by Maruemu Corp.). Each of the glycerin solutions having various concentrations shown in Table 5 was added into the screw tube so as to have a free N-palmitoyl-Gly-His concentration of 0.2%, 0.25%, 0.5%, or 1% (w/v). The mixture was heated at 100° C. with a constant temperature heat block (manufactured by Nippon Genetics Co., Ltd.), and then allowed to stand at room temperature.
(§2) In Table, a sample that formed a gel is shown as “O”, a sample that partially formed a gel is shown as “A”, and a sample without evaluation is shown as “-”.

[3] = Evaluation of gelation of free N-palmitoyl-Gly-His in propylene glycol (PG) solution; design: key: a sample that formed a gel is shown as “O”; a sample that partially formed a gel is shown as “A”; a sample that formed no gel is shown as “X”
Experimental: as §1, with “the propylene” for “the glycerin”, “Table 6” for “Table 5”, “of” for “of 0.2%,”
In Table, a sample that formed a gel is shown as “O”, a sample that partially formed a gel is shown as “A”, and a sample that formed no gel is shown as “X”.

[4] = Evaluation of gelation of free N-palmitoyl-Gly-His in solution containing inorganic salt, amino acid or organic substance
Experimental: as §1, with “An aqueous solution dissolving each additive described” for “Each of the glycerin solutions having various concentrations shown”, “7” for “5”, “0.5%” for “0.2%, 0.25%, 0.5%,”
as §2

[5] = Gelation test when adding methylparaben; conditions: aqueous solution of 0.2 wt % methylparaben; 0.25, 0.5 or 1.0 wt % tested
Experimental: An aqueous solution of 0.2 wt % methylparaben was prepared, and into the solution, free N-palmitoyl-Gly-His prepared in Example 4 was added so as to have a concentration of 0.25, 0.5, or 1.0 wt % to prepare a suspended mixture solution. Each mixture solution was heated at 95 to 99° C. until dissolved (for 6 to 25 minutes), and then allowed to cool to room temperature.

[6] = Usable mediums: solubility and gel formation, conventional art vs palmitoyl-Gly-His; conditions: wide variety of mediums including 50 mM citrate buffer pH 5, 50 mM acetate buffer pH 5, ethanol/water with 80% or more ethanol

For `CCCCCCCCCCCCCCCC(=O)NCC(=O)N[C@@H](Cc1c[nH]cn1)C(=O)O` [Example 4, N-Palmitoyl-Gly-His] (HELM PEPTIDE1{[CCCCCCCCCCCCCCCC(=O)[*:2]].G.H}$$$$V2.0), the Gelation ([1]; 0.1% (w/v), phosphate buffer solution pH 3) was “◯”, the Gelation ([1]; 0.1% (w/v), phosphoric acid aqueous solution pH 2) was “◯” and the Gelation ([1]; 0.1% (w/v), water) was “X”. The Gelation ([1]; 0.2% (w/v), phosphate buffer solution pH 3) was “◯”, the Gelation ([1]; 0.2% (w/v), phosphate buffer solution pH 5) was “◯” and the Gelation ([1]; 0.2% (w/v), phosphate buffer solution pH 6) was “◯”. For the same molecule, the Gelation ([1]; 0.2% (w/v), phosphoric acid aqueous solution pH 2) was “◯”, the Gelation ([1]; 0.2% (w/v), water) was “X” and the Gelation ([1]; 0.5% (w/v), phosphate buffer solution pH 3) was “◯”. For the same molecule, the Gelation ([1]; 0.5% (w/v), phosphate buffer solution pH 5) was “◯”, the Gelation ([1]; 0.5% (w/v), phosphate buffer solution pH 6) was “◯” and the Gelation ([1]; 0.5% (w/v), phosphate buffer solution pH 7.5) was “◯”. For the same molecule, the Gelation ([1]; 0.5% (w/v), phosphate buffer solution pH 9) was “X”, the Gelation ([1]; 0.5% (w/v), phosphate buffer solution pH 10) was “X” and the Gelation ([1]; 0.5% (w/v), phosphoric acid aqueous solution pH 2) was “◯”. The Gelation ([1]; 0.5% (w/v), water) was “X”, the Gelation ([1]; 1.0% (w/v), phosphate buffer solution pH 5) was “◯” and the Gelation ([1]; 1.0% (w/v), phosphate buffer solution pH 6) was “◯”. For the same molecule, the Gelation ([1]; 1.0% (w/v), phosphate buffer solution pH 7.5) was “◯”, the Gelation ([1]; 1.0% (w/v), phosphate buffer solution pH 9) was “◯” and the Gelation ([1]; 1.0% (w/v), phosphate buffer solution pH 10) was “◯”. For the same molecule, the Gelation ([1]; 1.0% (w/v), water) was “◯”, the Gelation ([1]; 2.0% (w/v), phosphate buffer solution pH 9) was “◯” and the Gelation ([1]; 2.0% (w/v), phosphate buffer solution pH 10) was “◯”. For the same molecule, the Gelation ([1]; 2.0% (w/v), water) was “◯”, the Gelation ([2]; 0.2% (w/v), mass fraction glycerin/water + glycerin 0.1) was “Δ” and the Gelation ([2]; 0.2% (w/v), mass fraction glycerin/water + glycerin 0.3) was “Δ”. For the same molecule, the Gelation ([2]; 0.2% (w/v), mass fraction glycerin/water + glycerin 0.5) was “◯”, the Gelation ([2]; 0.2% (w/v), mass fraction glycerin/water + glycerin 0.6) was “◯” and the Gelation ([2]; 0.2% (w/v), mass fraction glycerin/water + glycerin 0.7) was “◯”. The Gelation ([2]; 0.25% (w/v), mass fraction glycerin/water + glycerin 0.1) was “◯”, the Gelation ([2]; 0.25% (w/v), mass fraction glycerin/water + glycerin 0.3) was “◯” and the Gelation ([2]; 0.25% (w/v), mass fraction glycerin/water + glycerin 0.4) was “◯”. For the same molecule, the Gelation ([2]; 0.25% (w/v), mass fraction glycerin/water + glycerin 0.5) was “◯”, the Gelation ([2]; 0.25% (w/v), mass fraction glycerin/water + glycerin 0.6) was “◯” and the Gelation ([2]; 0.25% (w/v), mass fraction glycerin/water + glycerin 0.7) was “◯”. The Gelation ([2]; 0.5% (w/v), mass fraction glycerin/water + glycerin 0.1) was “◯”, the Gelation ([2]; 0.5% (w/v), mass fraction glycerin/water + glycerin 0.3) was “◯” and the Gelation ([2]; 0.5% (w/v), mass fraction glycerin/water + glycerin 0.4) was “◯”. The Gelation ([2]; 0.5% (w/v), mass fraction glycerin/water + glycerin 0.5) was “◯”, the Gelation ([2]; 0.5% (w/v), mass fraction glycerin/water + glycerin 0.6) was “◯” and the Gelation ([2]; 0.5% (w/v), mass fraction glycerin/water + glycerin 0.7) was “◯”. The Gelation ([2]; 1.0% (w/v), mass fraction glycerin/water + glycerin 0.1) was “◯”, the Gelation ([2]; 1.0% (w/v), mass fraction glycerin/water + glycerin 0.3) was “◯” and the Gelation ([2]; 1.0% (w/v), mass fraction glycerin/water + glycerin 0.4) was “◯”. For the same molecule, the Gelation ([2]; 1.0% (w/v), mass fraction glycerin/water + glycerin 0.5) was “◯”, the Gelation ([2]; 1.0% (w/v), mass fraction glycerin/water + glycerin 0.6) was “◯” and the Gelation ([2]; 1.0% (w/v), mass fraction glycerin/water + glycerin 0.7) was “◯”. For the same molecule, the Gelation ([3]; 0.25% (w/v), mass fraction PG/water + PG 0.1) was “Δ”, the Gelation ([3]; 0.25% (w/v), mass fraction PG/water + PG 0.2) was “Δ” and the Gelation ([3]; 0.25% (w/v), mass fraction PG/water + PG 0.3) was “Δ”. For the same molecule, the Gelation ([3]; 0.25% (w/v), mass fraction PG/water + PG 0.5) was “◯”, the Gelation ([3]; 0.25% (w/v), mass fraction PG/water + PG 0.7) was “◯” and the Gelation ([3]; 0.25% (w/v), mass fraction PG/water + PG 1.0) was “X”. The Gelation ([3]; 0.5% (w/v), mass fraction PG/water + PG 0.1) was “Δ”, the Gelation ([3]; 0.5% (w/v), mass fraction PG/water + PG 0.2) was “Δ” and the Gelation ([3]; 0.5% (w/v), mass fraction PG/water + PG 0.3) was “◯”. For the same molecule, the Gelation ([3]; 0.5% (w/v), mass fraction PG/water + PG 0.5) was “◯”, the Gelation ([3]; 0.5% (w/v), mass fraction PG/water + PG 0.7) was “◯” and the Gelation ([3]; 0.5% (w/v), mass fraction PG/water + PG 1.0) was “X”. The Gelation ([3]; 1.0% (w/v), mass fraction PG/water + PG 0.1) was “◯”, the Gelation ([3]; 1.0% (w/v), mass fraction PG/water + PG 0.2) was “◯” and the Gelation ([3]; 1.0% (w/v), mass fraction PG/water + PG 0.3) was “◯”. The Gelation ([3]; 1.0% (w/v), mass fraction PG/water + PG 0.5) was “◯”, the Gelation ([3]; 1.0% (w/v), mass fraction PG/water + PG 0.7) was “◯” and the Gelation ([3]; 1.0% (w/v), mass fraction PG/water + PG 1.0) was “X”. For the same molecule, the Gelation ([4]; 0.5% (w/v), aqueous solution of Alanine 0.1 wt %) was “◯”, the Gelation ([4]; 0.5% (w/v), aqueous solution of Aspartic acid 0.27 wt %) was “◯” and the Gelation ([4]; 0.5% (w/v), aqueous solution of Glycine 0.1 wt %) was “◯”. The Gelation ([4]; 0.5% (w/v), aqueous solution of KCl 0.1 wt %) was “Δ”, the Gelation ([4]; 0.5% (w/v), aqueous solution of KCl 0.5 wt %) was “Δ” and the Gelation ([4]; 0.5% (w/v), aqueous solution of Lysine hydrochloride 0.1 wt %) was “Δ”. The Gelation ([4]; 0.5% (w/v), aqueous solution of NaCl 0.1 wt %) was “Δ”, the Gelation ([4]; 0.5% (w/v), aqueous solution of NaCl 0.5 wt %) was “◯” and the Gelation ([4]; 0.5% (w/v), aqueous solution of Phenoxyethanol 0.25 wt %) was “◯”. For the same molecule, the Gelation ([4]; 1.0% (w/v), aqueous solution of KCl 0.1 wt %) was “◯”, the Gelation ([4]; 1.0% (w/v), aqueous solution of KCl 0.5 wt %) was “◯” and the Gelation ([4]; 1.0% (w/v), aqueous solution of NaCl 0.1 wt %) was “◯”. The Gelation ([4]; 1.0% (w/v), aqueous solution of NaCl 0.5 wt %) was “◯”, the Gelation ([4]; 1.0% (w/v), aqueous solution of Phenoxyethanol 0.25 wt %) was “◯” and the “Concentration at which a transparent gel was obtained” value [5] was no less than 0.5 wt %. For the same molecule, the Gel formation [6] was “can form a gel”.
